From US20030100109A1, “Methods and compositions for in vitro germination and propagation of polygonatum cirrhifolium royle” (priority 2001, published 2003)
“And” between values parts separate entries of the source, which are not always exact repeats. Identical values can stand only once.

Experiments:
[1] = tested on: Polygonatum cirrhifolium Royle seeds; experiment: Induction of germination (hypocotyl emergence) on modified MS medium with GA3 at 30° C. in dark; assay type: in vivo; conditions: modified MS culture medium; for Percent germination: mean ± S.E.
Procedure: Ripe purplish berries from plants grown in the wild were collected and dehydrated for 15 days at room temperature (29° C.±2° C.). Seeds were collected from dehydrated berries and washed in tap water with 1-2 drops of Tween-20™ for 2 hours and rinsed three times in distilled water. Seeds were then surface sterilized with 0.1% mercuric chloride (HgCl2) for 3 minutes. Mercuric chloride was removed by washing seeds four times in sterile distilled water. Sterilized, rinsed seeds were placed on semi-solid culture medium in sterile disposable plastic Petri plates (10 cm×2 cm). Macro and micro nutrients in the basal medium were that of Murashige and Skoog's (Murashige, T. and Skoog, F. […]. Physiol Plant 15: 433 -497) but modified to contain 2.2 g/L NH4NO3, 2.0 g/L KNO3, 0.44 g/l CaCl2.2H2O, 0.37 g/L MgSO4.7H20, 0.17 g/L KH2PO4, 37.25 mg/L Na2 EDTA, 27.8 mg/L FeSO4.7H20, 0.83 mg/L KI, 6.2 mg/L H3BO3, 22.3 mg/L MnSO4.4H20, 8.6 mg/L ZnSO4.7H20, 0.25 mg/L Na2 MoO4.2H20, 0.025 mg/L CuSO4.5H2O, 0.025 mg/L CoCl2.6H20. This medium was supplemented with 250 mg/L myo-inosital, 0.5 mgl/l nicotinic acid, 0.5 mg/L pyridoxine HCl, 3 mg/L thiamine HCl, 2 mg/L glycine, 30 g/L sucrose, 7.5 g/L agar and 2, 10, 25, and 50 mg/L gibberellic acid. The pH of the medium was adjusted to 5.8 before adding agar. Medium was sterilized at 121° C. (15 lb. psi pressure) for 20 minutes. […] Seeds with emerged hypocotyl were transferred under aseptic conditions to the above defined basal culture medium containing gibberellic acid at 5, 25, 50 and 100 mg/L. Transferred plants were incubated in an environment having 8-16-hr days under about 2000 lux of light and about 8-16-hr nights in total darkness at a constant temperature of 20° C. ([…]) and at 50-60% RH. Illumination was provided by 40-watt cool, white fluorescent tubes. Germination synchronization as indicated by differentiated epicotyl with emergent coleoptile and radicle was recorded on daily basis. Tables 1 and 2 show the induction of germination as indicated by the emergence of hypocotyl at temperature of 30° C. (±2° C.; dark; RH 50-60%) and diurnal temperature of 30/20° C. (±2° C.; dark; RH 50-60%). Experiment consisted of 4 treatments in the form of varying levels of GA3 (2, 10, 25 and 50 mg/L) supplemented to culture medium consisting of 2.2 g/L NH4NO3, 2.0 g/L KNO3, 0.44 g/l CaCl2.2H2O, 0.37 g/L MgSO4.7H20, 0.17 g/L KH2PO4, 37.25 mg/L Na2 EDTA, 27.8 mg/L FeSO4.7H20, 0.83 mg/L KI, 6.2 mg/L H3BO3, 22.3 mg/L MnSO4.4H20, 8.6 mg/L ZnSO4.7H20, 0.25 mg/L Na2 MoO4.2H20, 0.025 mg/L CuSO4.5H2O, 0.025 mg/L CoCl2.6H20, 250 mg/L myo-inositol, 0.5 mg/L nicotinic acid, 0.5 mg/L pyridoxine HCl, 3 mg/L thiamine HCl, 2 mg/L glycine, 30 g/L sucrose and 7.5 g/L agar. Each treatment consisted of 15 replicates with 5 seeds in each. These were incubated at a constant temperature of 30° C. under continuous darkness at a RH of 60%. With the increase in GA3 concentration, there is concomitant increase in germination (Table 1). Maximum germination of 98.53% was obtained at 25 mg/L of GA3. Germination extended from 24-61 days (maximum duration) at 2 mg/L of GA3 and 7-23 days (minimum duration) at 50 mg/L of GA3 respectively.

[2] = tested on: Polygonatum cirrhifolium Royle secondary explants; experiment: De novo axillary bud differentiation and release of foliage leaves on MS medium with GA3, BAP and NAA; assay type: in vivo; conditions: for Percentage axillary buds producing leaves / Percentage secondary-explants producing axillary buds / Mean number of axillary buds per secondary explant: MS medium, after 16 weeks of culture; for Mean number of axillary buds per secondary explant: ± SE
Text: Cultures were maintained at 50-60% RH. Plants were subcultured every four weeks in both sets of experiments on the same media formulations. Observations were made periodically but final data was compiled after 16 weeks of culture. In still another embodiment of the present invention, results in table 4 and 5 show the influence of various concentrations and combinations of BAP, NAA and GA3 on the in vitro release of epicotyl dormancy indicated by the release of rosette of leaves and induction of de novo axillary bud differentiation and their sprouting at 20-24° C. under 10-16 hr photoperiod (2000-3500 lux) at 50-60% of RH. […] Each treatment consisted of 24 cultures. These were incubated at 20° C. under 16 hr photoperiod (2000 lux) at 60% RH. […] There is a concomitant increase in the elicitation of response with the increasing concentrations of GA3.

[3] = GA3 1. mg/L in combination and 1.0 mg/L of NAA
[4] = GA3 5. mg/L in combination and 1.0 mg/L of NAA
[5] = GA3 10. mg/L in combination and 1.0 mg/L of NAA
[6] = GA3 15. mg/L in combination and 1.0 mg/L of NAA
[7] = GA3 20. mg/L in combination and 1.0 mg/L of NAA

Work on `C=C1C[C@]23C[C@@]1(O)CC[C@H]2[C@@]12C=C[C@H](O)[C@@](C)(C(=O)O1)[C@H]2[C@@H]3C(=O)O` [GA3, gibberellic acid] yielded a Duration of germination ([1]; GA3 2 mg/L) of 24 to 61 days, a Percent germination ([1]; GA3 2 mg/L) of 23.69 ± 7.04 % and a Duration of germination ([1]; GA3 10 mg/L) of 19 to 53 days. The Percent germination ([1]; GA3 10 mg/L) was 66.18 ± 4.77%, the Duration of germination ([1]; GA3 25 mg/L) was 11 to 30 days and the Percent germination ([1]; GA3 25 mg/L) was 98.53% and 98.53 ± 3.82%. For the same compound, the Duration of germination ([1]; GA3 50 mg/L) was 7 to 23 days, the Percent germination ([1]; GA3 50 mg/L) was 97.11 ± 4.01% and the “Percentage axillary buds producing leaves” value [2, 3] was 37.03%. The “Percentage secondary-explants producing axillary buds” value [2, 3] was 16.67%, the “Mean number of axillary buds per secondary explant” value (shortened to “Mean number … per secondary explant”) [2, 3] was 2.70 ± 0.70 and the Remarks ([2]; GA3 1. mg/L in combination and 1.0 mg/L of NAA, remark wraps over r12-r14: Epicotylar bulge swells forms rhizomatous base) was “Epicotylar bulge”. The “Percentage axillary buds producing leaves” value [2, 4] was 46.58— %, the “Percentage secondary-explants producing axillary buds” value [2, 4] was 70.83% and the “Mean number … per secondary explant” value [2, 4] was 6.44 ± 1.04. The “Percentage axillary buds producing leaves” value [2, 5] was 66.22%, the “Percentage secondary-explants producing axillary buds” value [2, 5] was 87.50% and the “Mean number … per secondary explant” value [2, 5] was 9.06 ± 2.00. For the same compound, the “Percentage axillary buds producing leaves” value [2, 6] was 77.12%, the “Percentage secondary-explants producing axillary buds” value [2, 6] was 100.00% and the “Mean number … per secondary explant” value [2, 6] was 11.67 ± 1.96. For the same compound, the “Percentage axillary buds producing leaves” value [2, 7] was 97.03%, the “Percentage secondary-explants producing axillary buds” value [2, 7] was 100.00% and the “Mean number … per secondary explant” value [2, 7] was 8.96 ± 2.01. The Remarks ([2]; GA3 20. mg/L in combination and 1.0 mg/L of NAA, remark wraps over r18-r20: Rhizomatous base, callus induction) was “Rhizomatous”.
